Experiment [1] addresses T1, FL hMALT1 enzyme (Homo sapiens, UniProt Q9UDY8).
T1 sequence (Q9UDY8 1-824): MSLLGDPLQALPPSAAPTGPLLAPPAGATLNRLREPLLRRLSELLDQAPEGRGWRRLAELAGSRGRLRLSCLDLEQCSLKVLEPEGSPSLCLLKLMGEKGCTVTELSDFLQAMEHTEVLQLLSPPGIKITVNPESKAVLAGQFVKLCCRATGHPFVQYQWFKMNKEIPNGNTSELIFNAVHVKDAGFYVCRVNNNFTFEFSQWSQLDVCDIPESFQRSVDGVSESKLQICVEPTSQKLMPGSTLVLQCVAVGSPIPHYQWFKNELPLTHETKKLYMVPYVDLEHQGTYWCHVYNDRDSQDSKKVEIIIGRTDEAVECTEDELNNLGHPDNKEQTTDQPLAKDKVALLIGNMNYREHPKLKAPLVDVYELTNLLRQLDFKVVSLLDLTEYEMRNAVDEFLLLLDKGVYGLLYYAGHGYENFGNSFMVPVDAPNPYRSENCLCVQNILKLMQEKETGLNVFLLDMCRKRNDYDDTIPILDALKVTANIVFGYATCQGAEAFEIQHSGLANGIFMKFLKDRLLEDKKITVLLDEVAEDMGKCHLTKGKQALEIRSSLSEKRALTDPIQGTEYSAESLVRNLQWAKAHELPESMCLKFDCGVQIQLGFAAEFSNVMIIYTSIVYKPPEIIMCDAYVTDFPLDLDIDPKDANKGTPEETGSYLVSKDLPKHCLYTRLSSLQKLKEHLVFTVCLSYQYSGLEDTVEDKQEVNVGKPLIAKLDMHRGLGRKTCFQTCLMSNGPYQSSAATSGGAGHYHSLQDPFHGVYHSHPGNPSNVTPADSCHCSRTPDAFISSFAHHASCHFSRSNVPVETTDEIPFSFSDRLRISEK
In words: biochemical.

The test system of experiment [2] is IL-2 release from stimulated Jurkat cells. Description: Human IL-2 Release Phenotypic Assay (Assay 3). Particulars: Jurkat cells (clone E6-1), 200 ng/mL PMA + 300 ng/mL ionomycin, IL-2 by ELISA. The format is cell-based. Summed up:
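Jurkat E6-1 cells in RPMI1640/10% FBS were seeded at 50 000 cells/well and incubated overnight at 37° C. Half-log compound dilutions (0.5% final DMSO) were added for 30 min, then cells were stimulated with 200 ng/mL PMA + 300 ng/mL ionomycin for 48 h. IC50 came from a 4-parameter non-linear regression fit.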

Take `CN(C(=O)C1CCC(=O)NC1)[C@@H](c1ccc(NC2Cc3ccccc3C2(C)C)cn1)C(F)(F)F` (single isomer, unassigned) [Example 106]: the IC50 in experiment [1] was found to be 0.13 µM; in experiment [2] (48 hours), 0.54 µM.

For `CN(C(=O)C1COCC(=O)N1)[C@@H](c1ccc(NC2Cc3ccccc3C2(C)C)cn1)C(F)(F)F` (single isomer, unassigned) [Example 164], the IC50 is 0.033 µM in experiment [1] and 0.15 µM in experiment [2] (Homo sapiens, Jurkat, 48 h).

Consider `CN(C(=O)C1CCS(=O)(=O)CC1)[C@@H](c1ccc(NC2Cc3ccc(Cl)c(C(F)(F)F)c3C2)cn1)C(F)(F)F` (single isomer, unassigned) [Example 312], for which the IC50 in experiment [1] was determined as 0.015 µM; in experiment [2] (Homo sapiens, Jurkat, 48 h), 0.35 µM.

As to `CN1CCC(C(=O)N(C)[C@@H](c2ccc(NC3Cc4ccccc4C3(C)C)cn2)C(F)(F)F)CC1` (single isomer, unassigned) [Example 132], the IC50 was determined as 0.25 µM in experiment [1] and 1.37 µM in experiment [2] (48 hours).

Take `CN(C(=O)C1CCS(=O)(=O)CC1)[C@@H](c1ccc(NC2Cc3ccc(Cl)c(F)c3C2)nc1)C(F)(F)F` (single isomer, unassigned) [Example 332]: the IC50 in experiment [1] was 0.014 µM; in experiment [2] (Homo sapiens, Jurkat, 48 h), 0.047 µM.

On to `CN(C(=O)C1CCS(=O)(=O)CC1)[C@@H](c1ccc(NC2Cc3cccc(C(F)(F)F)c3C2)nc1)C(F)(F)F` (single isomer, unassigned) [Example 281], for which the IC50 in experiment [1] turned out to be 0.014 µM; in experiment [2] (Homo sapiens, Jurkat, 48 h), 0.46 µM.

Take `CN(C(=O)C1CNC(=O)O1)[C@@H](c1ccc(N[C@@H]2Cc3ccccc3C2(C)C)cn1)C(F)(F)F` (single isomer, unassigned) [Example 109]: the IC50 in experiment [1] was 0.76 µM; in experiment [2] (48 hours) it was 0.9 µM.

As for `CN(C(=O)C1CCC(=O)NC1)[C@@H](c1ccc(NC2Cc3ccccc3C2(C)C)cn1)C(F)(F)F` (single isomer, unassigned) [Example 104], the half-maximal inhibitory concentration (IC50) in experiment [1] amounted to 0.14 µM; in experiment [2] (48 hours), 2.7 µM.

Take `Cc1c(Cl)ccc2c1CC(Nc1ccc([C@H](N(C)C(=O)C3CCS(=O)(=O)CC3)C(F)(F)F)nc1)C2` (single isomer, unassigned) [Example 372]: the IC50 worked out at 0.019 µM in experiment [1] and 0.13 µM in experiment [2] (Homo sapiens, Jurkat, 48 h).

Turning to `CN(C(=O)[C@@H]1CNC(=O)C1)[C@@H](c1ccc(NC2Cc3ccc(Cl)c(Cl)c3C2)cn1)C(F)(F)F` (single isomer, unassigned) [Example 319], the IC50 stood at 0.024 µM in experiment [1] and 0.066 µM in experiment [2] (Homo sapiens, Jurkat, 48 h).

Turning to `CN(C(=O)C1CCNCC1)[C@@H](c1ccc(NC2Cc3ccccc3C2(C)C)cn1)C(F)(F)F` (single isomer, unassigned) [Example 146], the IC50 in experiment [1] was determined as 0.11 µM; in experiment [2] (Homo sapiens, Jurkat, 48 h), 0.48 µM.

Regarding `CN(C(=O)C12CC(NS(C)(=O)=O)(C1)C2)[C@@H](c1ccc(N[C@H]2Cc3ccc(Cl)cc3C2)cn1)C(F)(F)F` [Example 299, N—((S)-1-(5-(((S)-5-Chloro-2,3-dihydro-1H-inden-2-yl)amino)pyridin-2-yl)-2,2,2-trifluoroethyl)-N-methyl-3-(methylsulfonamido)bicyclo[1.1.1]pentane-1-carboxamide], the IC50 in experiment [1] is 0.094 µM; in experiment [2] (Homo sapiens, Jurkat, 48 h), 0.43 µM.

Consider `CN(C(=O)[C@H]1C[C@]2(CCN2C)C1)[C@@H](c1ccc(NC2Cc3ccccc3C2(C)C)cn1)C(F)(F)F` (single isomer, unassigned) [Example 159], for which the IC50 was found to be 0.14 µM in experiment [1] and 1.16 µM in experiment [2] (Homo sapiens, Jurkat, 48 h).

In the case of `CN(C(=O)C1CC2(CNC(=O)OC2)C1)[C@@H](c1ccc(NC2Cc3ccccc3C2(C)C)nc1)C(F)(F)F` (single isomer, unassigned) [Example 174], the IC50 was found to be 0.07 µM in experiment [1] and 0.89 µM in experiment [2] (Homo sapiens, Jurkat, 48 h).

As to `CN(C(=O)C1CCCNC1)[C@@H](c1ccc(NC2Cc3ccccc3C2(C)C)cn1)C(F)(F)F` (single isomer, unassigned) [Example 124], the IC50 in experiment [1] is 0.19 µM; in experiment [2] (48 hours), 1.29 µM.

As to `COCCN1CCC12CC(C(=O)N(C)[C@@H](c1ccc(NC3Cc4ccccc4C3(C)C)cn1)C(F)(F)F)C2` (single isomer, unassigned) [Example 243], the IC50 in experiment [1] came to 0.086 µM; in experiment [2] (Homo sapiens, Jurkat, 48 h) it was 0.64 µM.

Turning to `CN(C(=O)C1CNC(=O)CO1)[C@@H](c1ccc(NC2Cc3ccccc3C2(C)C)cn1)C(F)(F)F` (single isomer, unassigned) [Example 134], the IC50 in experiment [1] was 0.16 µM; in experiment [2] (48 hours), 0.71 µM.

As to `CN(C(=O)C1CN(S(C)(=O)=O)C1)[C@@H](c1ccc(NC2Cc3ccccc3C2(C)C)cn1)C(F)(F)F` (single isomer, unassigned) [Example 209], the IC50 in experiment [1] was 0.052 µM; in experiment [2] (Homo sapiens, Jurkat, 48 h), 0.38 µM.

As to `CN(C(=O)[C@H]1CCC(=O)NC1)[C@@H](c1ccc(NC2Cc3ccc(Cl)c(Cl)c3C2)cn1)C(F)(F)F` (single isomer, unassigned) [Example 321], the IC50 in experiment [1] was determined as 0.025 µM; in experiment [2] (Homo sapiens, Jurkat, 48 h), 0.086 µM.

On to `CC(=O)N[C@H]1CC[C@@H](C(=O)N(C)[C@@H](c2ccc(N[C@H]3Cc4ccccc4C3(C)C)cn2)C(F)(F)F)C1` [Example 172, (1R,3S)-3-Acetamido-N—((S)-1-(5-(((S)-1,1-dimethyl-2,3-dihydro-1H-inden-2-yl)amino)pyridin-2-yl)-2,2,2-trifluoroethyl)-N-methylcyclopentane-1-carboxamide], for which the IC50 is 0.071 µM in experiment [1] and 0.49 µM in experiment [2] (Homo sapiens, Jurkat, 48 h).

On to `CN(C(=O)C1CNC(=O)O1)[C@@H](c1ccc(N[C@@H]2Cc3ccccc3C2(C)C)cn1)C(F)(F)F` (single isomer, unassigned) [Example 110], for which the IC50 in experiment [1] stood at 0.016 µM; in experiment [2] (48 hours) it was 0.149 µM.

As to `CN(C(=O)C1CC2(CCN2CCO)C1)[C@@H](c1ccc(NC2Cc3ccccc3C2(C)C)cn1)C(F)(F)F` (single isomer, unassigned) [Example 249], the IC50 in experiment [1] was found to be 0.05 µM; in experiment [2] (Homo sapiens, Jurkat, 48 h), 0.35 µM.

With `CN(C(=O)C1CCS(=O)(=O)C1)[C@@H](c1ccc(NC2Cc3ccc(Cl)c(Cl)c3C2)cn1)C(F)(F)F` (single isomer, unassigned) [Example 360], the IC50 in experiment [1] amounted to 0.03 µM; in experiment [2] (48 hours), 0.11 µM.

For `CN(C(=O)C1CN2CCC1CC2)[C@@H](c1ccc(NC2Cc3ccccc3C2(C)C)cn1)C(F)(F)F` (single isomer, unassigned) [Example 141], the results for the IC50 in experiment [1] and in experiment [2] (48 hours) were 0.21 µM and 1.23 µM, respectively.

For the compound `CN(C(=O)C1CCS(=O)(=O)CC1)[C@@H](c1ccc(NC2Cc3cccc(C4CC4)c3C2)cn1)C(F)(F)F` (single isomer, unassigned) [Example 254], the IC50 amounted to 0.053 µM in experiment [1] and 1.4 µM in experiment [2] (Homo sapiens, Jurkat, 48 h).

Turning to `CC(=O)N1CC(C(=O)N(C)[C@@H](c2ccc(NC3Cc4ccc(Cl)c(Cl)c4C3)cn2)C(F)(F)F)C1` (single isomer, unassigned) [Example 377], the IC50 in experiment [1] was determined as 0.04 µM; in experiment [2] (Homo sapiens, Jurkat, 48 h), 0.13 µM.

In the case of `CN(C(=O)C1CC2(CNC(=O)OC2)C1)[C@@H](c1ccc(NC2Cc3ccccc3C2(C)C)nc1)C(F)(F)F` (single isomer, unassigned) [Example 175], the IC50 was 0.054 µM in experiment [1] and 0.81 µM in experiment [2] (48 hours).

For the compound `CN(C(=O)C1CC2(CCC(=O)N2)C1)[C@@H](c1ccc(NC2Cc3ccccc3C2(C)C)cn1)C(F)(F)F` (single isomer, unassigned) [Example 230], the IC50 in experiment [1] is 0.038 µM; in experiment [2] (Homo sapiens, Jurkat, 48 h), 0.34 µM.

On to `CN(C(=O)C1CC2(CCC(=O)N2)C1)[C@@H](c1ccc(NC2Cc3ccc(Cl)c(Cl)c3C2)cn1)C(F)(F)F` (single isomer, unassigned) [Example 343], for which the values for the IC50 in experiment [1] and in experiment [2] (48 hours) were 0.077 µM and 0.36 µM, respectively.

Take `CN(C(=O)[C@H]1C[C@H](O)C1)[C@@H](c1ccc(NC2Cc3ccc(Cl)c(F)c3C2)cn1)C(F)(F)F` (single isomer, unassigned) [Example 374]: the IC50 in experiment [1] was found to be 0.05 µM; in experiment [2] (Homo sapiens, Jurkat, 48 h) it was 0.23 µM.

For `CN(C(=O)C12CC(NS(C)(=O)=O)(C1)C2)[C@@H](c1ccc(NC2Cc3ccc(Cl)c(Cl)c3C2)cn1)C(F)(F)F` (single isomer, unassigned) [Example 323], the IC50 in experiment [1] came to 0.014 µM; in experiment [2] (Homo sapiens, Jurkat, 48 h), 0.1 µM.

Turning to `CN(C(=O)C1CCS(=O)(=O)CC1)[C@@H](c1ccc(NC2Cc3cc(Cl)cc(F)c3C2)cn1)C(F)(F)F` (single isomer, unassigned) [Example 270], the IC50 in experiment [1] is 0.081 µM; in experiment [2] (Homo sapiens, Jurkat, 48 h) it was 0.27 µM.

(Values after patent US20260184687A1, “DIHYDROINDENE DERIVATIVES AS MALT1 INHIBITORS” (C4X Discovery Limited, priority 2022, published 2026).)
